Test results reported in patent publication US20040103451A1, “Abscisic acid 8'-and 7'-hydroxylase genes and related sequences from plants” (priority 2003, published 2004).

Key:
[1] = test system: pJK6-29 mRNA; type: cell-based, corn
Protocol: Total RNA isolated from non-ABA-induced and ABA-induced (9 hr at […] (+)-ABA) BMS corn suspension was probed with radiolabeled pJK6-29. […] Further Northern blot analysis was carried out. In this experiment, the time course of gene expression was compared with the appearance of ABA 8'-hydroxylase activity. ABA 8'-hydroxylase activity was determined by in vitro assay (see Krochko J. E., et al., 1998, Plant Physiol 118: 849-860) with isolated microsomes isolated from BMS corn suspension cells at defined periods after the addition of 200 μM (+)-ABA. Enzyme activity was assayed at 0 (control), 3, 6, 9, 12, 16, 20.5, 25.5 and 28.5 hours after the addition of (+)-ABA. Total RNA was extracted from duplicate tissue samples and expression of the P450 clone, pJK6-29, was determined by Northern blot analysis. The time-course of mRNA induction for pJK6-29 is consistent with the appearance of ABA 8'-hydroxylase activity (FIG. 5).

[2] = test system: ABA 8′-hydroxylase; settings: cited from earlier work; for inhibition of induction of ABA 8′-hydroxylase: corn suspension cells
[3] = test system: CYP72A7; assay: biotransformation of (+)-ABA by yeast expressing CYP72A7, LC/MS/MS of culture media; type: cell-based, Arabidopsis thaliana
Protocol: FIG. 6. Heterologous expression of an Arabidopsis P450 ABA 7′-hydroxylase activity in yeast. The CYP72A7 cDNA from Arabidopsis thaliana was inserted into the pYeDP60 vector, transformed into the WAT11 yeast strain (but not the WAT21 yeast strain) and analyzed for the ability to metabolize (+)-ABA. The biotransformation of (+)-ABA to 7′-hydroxyABA was assessed by High Performance Liquid Chromatography—Mass Spectrometry. (HPLC/MS/MS) 7′-hydroxyABA was excreted into the media. Measured activity was limited by access of enzyme to the substrate (ABA).
For yeast expression, the cDNAs were transferred into the expression vector pYeDP60 (Pompon D., et al., 1996, Method Enzymol 272: 51-64), and purified recombinant plasmid was subsequently transformed into WAT 11 and WAT 21 yeast strains over-expressing the Arabidopsis cytochrome P450 reductases, CTR1 and CTR2, respectively (Pompon et al., ibid). […]
For expression analysis the cultures were grown for two days on SC minus URA agar plates at 30° C. […] One to 10 mls of the sample was loaded onto an Oasis HLB column (Waters) to purify ABA and ABA-metabolites and the resulting eluant was analyzed by LC/MS/MS.

[4] = test system: ABA 8′-hydroxylase; settings: microsomal enzyme, BMS corn suspension cells; cited from earlier work

Compound | inhibition of ABA 8′-hydroxylase [4] | inhibition of induction of ABA 8′-hydroxylase [2] | other results
CC1=CC(=O)CC(C)(C)[C@@]1(O)/C=C/C(C)=C\C(=O)O [(+)-ABA, S-(+)-abscisic acid] | – | – | regulation of pJK6-29 P450 mRNA expression [1]: upregulated; time of peak ABA 8′-hydroxylase activity after addition of (+)-ABA ([2]; BMS corn suspension culture medium): 16 h; induction of ABA 8′-hydroxylase ([2]; maize BMS suspension cultured cells): induced; ABA hydroxylase activity ([3]; WAT21 yeast strain): did not support any ABA hydroxylase activity; ABA 7′-hydroxylase activity (conversion to 7′-hydroxyABA) ([3]; pYeDP60.Ath30-2 in WAT11 yeast strain, (+)-ABA 20 μM to 50 μM, 24 hours): ABA 7′-hydroxylase activity was demonstrated
[C-]#[O+] [CO] | inhibited | – | –
Nc1ncnc2c1ncn2[C@@H]1O[C@H](CO)C[C@H]1O [cordecypin] | – | inhibited | –
C[C@@H]1C[C@@H]([C@H](O)CC2CC(=O)NC(=O)C2)C(=O)[C@@H](C)C1 [cycloheximide] | – | inhibited | –
Clc1ccc(N2N=N[C@@H]3[C@@H]4C[C@@H]([C@H]5N=N[C@@H]45)[C@@H]32)cc1 [tetcyclacis] | inhibited | – | –
oxidized cytochrome c: inhibitor of ABA 8′-hydroxylase | inhibited | – | –
